Patent US20220233661A1, “METHOD OF DETERMINING ELIGIBILITY OF CANCER PATIENT FOR PEPTIDE VACCINE THERAPY” (priority 2019, published 2022)

Columns and labels:
[1] = test system: anti-peptide IgG in plasma; experiment: Test Example 4: peptide-specific IgG titer pre and post vaccination, bead-based multiplexed Luminex assay; assay type: in vivo, human; settings: for Pre-vaccination IgG Negative (number of patients) / Pre-vaccination IgG Positive (number of patients): cut off 10 FIU; for Post vaccination IgG: number of (positive) patients among vaccinated: positive IgG response; for Pre-vaccination IgG Negative patients: number of 2,588 patients below 10 FIU; for Pre-vaccination IgG Positive patients: number of 2,588 patients with ≥10 FIU; for Post vaccination IgG: (positive) patients: number of vaccinated patients with positive IgG response; for Correlation between immune responses and OS: Negative (mOS): patients with negative post-vaccination IgG response to the peptide; for Correlation between immune responses and OS: Positive (mOS): patients with positive post-vaccination IgG response to the peptide
Experimental: As described previously, IgG titer specific to the antigen peptides in plasma was measured by bead-based multiplexed Luminex assay (Luminex, Austin, Tex.) before and after vaccination, i.e., at the end of each cycle or at the end of the clinical trial (Non-Patent Literature 4). In brief, 30 mL of peripheral blood was obtained before and after vaccination. Plasma was incubated with 100 μL of peptide-coupled color-coded beads for 2 hours at 25° C. on a plate shaker. After the incubation, the resultant mixture was washed with a vacuum manifold apparatus and incubated with 100 μL of biotinylated goat anti-human IgG (gamma chain-specific; Vector Laboratories, Burlingame, Calif.) for 1 hour at 25° C. on a plate shaker. The plate was then washed, followed by addition of 100 μL of streptavidin-PE (Life Technologies) to each well, and incubation for 30 minutes at 25° C. on a plate shaker. The resultant beads were washed 4 times, followed by addition of 100 μL of Tween-PBS to each well, and detection of fluorescence intensity units (FIU) on the beads using the Luminex system. The cutoff values of anti-peptide IgG were set to 10 FIU in 100-fold diluted samples.
Pre-vaccination peptide-specific IgG titers to 31 peptides were measured using a Luminex system. As a detectable IgG level, 10 FIU was employed as the cut off level, as reported previously (Noguchi M, et al., Cancer Immunol Immunother. 2013 May; 62(5): 919-29; Sasada T, et al., Current Medicinal Chemistry. 21: 2332-2345, 2014; Kibe S, et al., Cancer Immunology Research 2014; 2(12): 1154-62).
Post-vaccination lgG titers were measured at the ends of the first cycle and the second cycle.

[2] = test system: cancer patients; experiment: Test Example 4: correlation between vaccination with individual peptides (or peptide sets) and OS, Cox proportional hazards regression; assay type: in vivo, human; settings: for HR: Cox proportional hazards regression, OS; for Correlation between immune responses and OS: Negative (mOS) / Correlation between immune responses and OS: Positive (mOS): Table 20, <64% neutrophil and ≥26% lymphocyte; for Correlation between immune responses and OS: Negative (mOS): vaccinated patients with negative IgG response; for Correlation between immune responses and OS: Positive (mOS): vaccinated patients with positive IgG response
Experimental: The Student's t-test and the chi-square test were used to compare quantitative and categorical variables, respectively. OS was calculated as the time in months from the date of clinical trial enrollment to death or to the date of last contact. Time-to-event endpoints were analyzed using the Kaplan-Meier method, and between-group comparison for OS was conducted using the log-rank test. Clinical efficacy of the individual peptides for OS was evaluated by univariate and multivariate analyses with the Cox proportional hazards regression model, and HR and 95% CI were calculated. All reported p-values were two-sided, and p-values less than 0.05 were considered significant. JMP version 12 or SAS version 9.4 software (SAS Institute Inc., Cary, N.C.) was used to perform all analyses.
Correlation levels of the 31 peptides for OS were evaluated by the Cox proportional hazards regression model.
Similarly, in the 2,085 advanced cancer patients (stage IV+recurrence) and the 503 non-advanced cancer patients (I-III stages) correlation levels of the 31 peptides for OS were evaluated by the Cox proportional hazards regression model. […]

[3] = Table 20, patients showing both <64% neutrophil and ≥26% lymphocyte
[4] = patients showing detectable levels
[5] = patients showing positive responses
[6] = Table 18, all 2,588 cases, vaccinated vs non-vaccinated
[7] = Table 18, all 2,588 cases, median OS of patients under PPV containing the peptide
[8] = Table 18, all 2,588 cases, median OS of patients under PPV not containing the peptide
[9] = Table 19, 2,085 advanced cancer patients (stage IV+recurrence)
[10] = Table 19, 2,085 advanced cancer patients (stage IV+recurrence), PPV containing the peptide
[11] = Table 19, 2,085 advanced cancer patients (stage IV+recurrence), PPV not containing the peptide
[12] = Table 21, patients showing both <64% neutrophil and ≥26% lymphocyte
[13] = Table 21, patients showing both <64% neutrophil and ≥26% lymphocyte, PPV containing the peptide
[14] = Table 21, patients showing both <64% neutrophil and ≥26% lymphocyte, PPV not containing the peptide
[15] = 2,085 advanced cancer patients (stage IV+recurrence)

Sequence | Post vaccination IgG Median (FIU) [1, 3] | Pre-vaccination IgG Median (FIU) [1, 3] [FIU] | Pre-vaccination IgG Negative (number of patients) [1, 3] | Pre-vaccination IgG Positive (number of patients) [1, 3] | Post vaccination IgG: number of (positive) patients among vaccinated [1, 3] | Pre-vaccination IgG Negative patients [1] | Pre-vaccination IgG Positive patients [1] | Post vaccination IgG: (positive) patients [1] | Pre-vaccination IgG Median (FIU) [1, 4] [FIU] | Post vaccination IgG Median (FIU) [1, 5] | Correlation between immune responses and OS: Negative (mOS) [1] [months] | Correlation between immune responses and OS: Positive (mOS) [1] [months] | HR [2, 6] | Vaccinate cases (mOS) [2, 7] | Non-vaccinate cases (mOS) [2, 8] | HR [2, 9] | Vaccinate cases (mOS) [2, 10] | Non-vaccinate cases (mOS) [2, 11] | Correlation between immune responses and OS: Negative (mOS) [2] [months] | Correlation between immune responses and OS: Positive (mOS) [2] [months] | other results
ILEQSGEWWK (listed as Homo sapiens) [Lck-90] | 4,250 FIU | 43 | 215 | 851 | 210(100) | 501 | 2,087 | 502(187) | 44 | 3,350 FIU | 10.3 | 20.9 | 1.0 | 502(11.3) M | 712(11.0) M | 1.0 | 391(10.3) M | 578(9.4) M | 12 | 26.3 | HR [2, 12]: 1.0; Vaccinate cases (mOS) [2, 13]: 210(17.8) M; Non-vaccinate cases (mOS) [2, 14]: 297(17.5) M
DYLRSVLEDF (listed as Homo sapiens) [Lck-488] | 11,894 FIU | 60 | 192 | 874 | 452(313) | 441 | 2,147 | 1103(635) | 60 | 11,594 FIU | 7.8 | 20.6 | 0.9 | 1,103(12.0) M | 447(12.0) M | 1.0 | 872(10.7) M | 374(10.1) M | 9.3 | 24.7 | HR [2, 12]: 1.0; Vaccinate cases (mOS) [2, 13]: 452(17.9) M; Non-vaccinate cases (mOS) [2, 14]: 173(19.7) M
KLVERLGAA (listed as Homo sapiens) [Lck-246] | 15,377 FIU | 48 | 299 | 767 | 161(92) | 773 | 1,815 | 366(169) | 49 | 10,806 FIU | 8.3 | 19.3 | 1.0 | 366(11.4) M | 684(11.6) M | 1.0 | 300(9.8) M | 562(10.4) M | 8.7 | 28.2 | HR [2, 12]: 1.1; Vaccinate cases (mOS) [2, 13]: 161(15.4) M; Non-vaccinate cases (mOS) [2, 14]: 273(18.2) M
DVWSFGILL (listed as Homo sapiens) [Lck-422] | 446 FIU | 33 | 945 | 121 | 33(10) | 2,272 | 316 | 92(20) | 33 | 436 FIU | 11.7 | 18.5 | 1.2 | 92(12.0) M | 1,849(11.4) M | 1.1 | 83(11.7) M | 1493(10.2) M | 15.6 | 18.8 | positive rate of patients showing ≥10 FIU, pre-vaccination peptide-specific IgG ([1]; 2,588 patients, pre-vaccination): 12%; positive immune responses post-vaccination (positive of vaccinated cases) ([1]; patients who completed at least the first cycle): 20 of 92; HR [2, 12]: 1.1; Vaccinate cases (mOS) [2, 13]: 33(15.6) M; Non-vaccinate cases (mOS) [2, 14]: 775(17.5) M
LYCESVHNF (listed as Homo sapiens) [PAP-213] | 15,379 FIU | 33 | 489 | 577 | 121(94) | 1,166 | 1,422 | 279(196) | 33 | 14,912 FIU | 7.0 | 21.7 | 0.9 | 279(16.6) M | 1271(11.4) M | 0.8 | 228(14.9) M | 1018(10.0) M | 11.3 | 28.1 | median OS of non-vaccinated cases [2, 15]: 10 months; median OS of vaccinated cases [2, 15]: 14.9 months; HR [2, 12]: 0.9; Vaccinate cases (mOS) [2, 13]: 121(23.7) M; Non-vaccinate cases (mOS) [2, 14]: 504(17.9) M
